Measurements published in patent publication US9963467B2, “Boronic acid derivatives and therapeutic uses thereof” (Rempex Pharmaceuticals, Inc., priority 2014, dated 2018).

Tests used:
OXA-48 = OXA-48 (Klebsiella pneumoniae, UniProt Q6XEC0); assay: Ki, nitrocefin cleavage by purified enzyme, OXA-48; format: biochemical; settings: nitrocefin reporter substrate; read-out: Ki (OXA-48, NCF)
Outline: (§1)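 Steps: enzyme plus inhibitor dilutions in reaction buffer; 10 min at room temperature; add nitrocefin; read absorbance at 490 nm each 10 sec for 10 min.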

ECL1002 [1] = assay: Aztreonam potentiation (MPC@4), ECL1002; format: cell-based; settings: BLI with aztreonam at 4 μg/mL
ec308 (SHV-5) = assay: Tigemonam potentiation (MPC@4), ec308; format: cell-based
KP1005 (CTX-M-14) [2] = assay: Tigemonam potentiation (MPC@4), KP1005; format: cell-based; settings: BLI with tigemonam at 4 μg/mL
ec302 (TEM-10) [3] = assay: Aztreonam potentiation (MPC@4), ec302; format: cell-based; settings: BLI with aztreonam at 4 μg/mL
ECL1002 [4] = assay: Tigemonam potentiation (MPC@4), ECL1002; format: cell-based; settings: BLI with tigemonam at 4 μg/mL
CTX-M-14 = CTX-M-14 (Escherichia coli, UniProt Q9L5C7); assay: Ki, nitrocefin cleavage by purified enzyme, CTX-M-14; format: biochemical; settings: nitrocefin reporter substrate; read-out: Ki (CTX-M-14, NCF)
Sequence of CTX-M-14 (Q9L5C7 29-291): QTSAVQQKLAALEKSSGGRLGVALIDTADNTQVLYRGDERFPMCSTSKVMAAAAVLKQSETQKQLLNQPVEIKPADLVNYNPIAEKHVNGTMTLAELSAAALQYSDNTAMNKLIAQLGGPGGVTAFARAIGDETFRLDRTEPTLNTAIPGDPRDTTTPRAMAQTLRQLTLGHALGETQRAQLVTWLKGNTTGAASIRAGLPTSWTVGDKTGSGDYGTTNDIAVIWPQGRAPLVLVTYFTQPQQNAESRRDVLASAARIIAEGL
Outline: as §1

P99 = P99 (Enterobacter cloacae, UniProt P05364); assay: Ki, nitrocefin cleavage by purified enzyme, P99; format: biochemical; settings: nitrocefin reporter substrate; read-out: Ki (P99, NCF)
Sequence of P99 (P05364 21-381): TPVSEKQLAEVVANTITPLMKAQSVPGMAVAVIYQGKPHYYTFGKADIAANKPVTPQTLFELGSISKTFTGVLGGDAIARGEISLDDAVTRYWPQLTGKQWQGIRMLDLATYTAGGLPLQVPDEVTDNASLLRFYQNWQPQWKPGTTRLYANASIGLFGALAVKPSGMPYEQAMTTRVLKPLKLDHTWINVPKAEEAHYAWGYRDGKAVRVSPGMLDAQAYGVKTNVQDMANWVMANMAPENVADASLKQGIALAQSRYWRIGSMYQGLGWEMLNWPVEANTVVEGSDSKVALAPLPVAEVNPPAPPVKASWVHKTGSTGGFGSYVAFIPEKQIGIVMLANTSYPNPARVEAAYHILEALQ
Outline: as §1

KP1004 (KPC-2) [5] = assay: Biapenem potentiation (MPC@1), KP1004; settings: BLI with biapenem at 1 μg/mL
EC1010 (CMY-6) [6] = assay: Tigemonam potentiation (MPC@4), EC1010; format: cell-based; settings: BLI with tigemonam at 4 μg/mL
KP1009 (CTX-M-15) [7] = assay: organism not typed; format: cell-based
SHV-12 = SHV-12 (Klebsiella pneumoniae, UniProt P0AD64, E235K/G234S/L31Q); assay: Ki, nitrocefin cleavage by purified enzyme, SHV-12; format: biochemical; settings: nitrocefin reporter substrate; read-out: Ki (SHV-12, NCF)
Sequence of SHV-12 (P0AD64 22-286 L31Q/G234S/E235K): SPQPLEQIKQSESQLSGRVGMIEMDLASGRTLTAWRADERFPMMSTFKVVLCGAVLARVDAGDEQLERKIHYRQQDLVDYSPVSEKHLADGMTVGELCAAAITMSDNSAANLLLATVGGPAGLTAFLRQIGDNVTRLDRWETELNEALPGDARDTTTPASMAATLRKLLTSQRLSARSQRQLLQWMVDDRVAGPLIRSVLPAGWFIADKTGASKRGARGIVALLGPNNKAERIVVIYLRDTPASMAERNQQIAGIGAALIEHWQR
Outline: as §1

Pa AmpC = Pa AmpC (Pseudomonas aeruginosa, UniProt P24735); assay: Ki, nitrocefin cleavage by purified enzyme, Pa AmpC; format: biochemical; settings: nitrocefin reporter substrate; read-out: Ki (Pa AmpC, NCF)
Sequence of Pa AmpC (P24735 27-397): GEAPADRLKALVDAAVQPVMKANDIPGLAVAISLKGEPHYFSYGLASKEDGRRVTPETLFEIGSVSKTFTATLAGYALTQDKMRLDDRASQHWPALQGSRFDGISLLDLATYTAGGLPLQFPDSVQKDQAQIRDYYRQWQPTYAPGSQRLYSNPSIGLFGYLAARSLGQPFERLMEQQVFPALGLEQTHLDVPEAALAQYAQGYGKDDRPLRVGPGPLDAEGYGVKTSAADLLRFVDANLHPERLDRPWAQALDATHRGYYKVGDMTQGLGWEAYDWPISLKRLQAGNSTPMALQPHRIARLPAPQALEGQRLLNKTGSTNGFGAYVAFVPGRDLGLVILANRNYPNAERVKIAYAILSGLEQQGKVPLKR
Outline: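 Preincubation 10 min RT, purified enzyme with inhibitor series in reaction buffer; reporter nitrocefin; kinetic A490, 10-sec intervals, 10 min; Ki calculated.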

KP1004 (KPC-2) [8] = assay: Aztreonam potentiation (MPC@4), KP1004; format: cell-based; settings: BLI with aztreonam at 4 μg/mL
EC1010 (CMY-6) [9] = assay: organism not typed; format: cell-based
ec302 (TEM-10) [10] = assay: Tigemonam potentiation (MPC@4), ec302; format: cell-based
KPC-2 = KPC-2 (Klebsiella pneumoniae, UniProt Q9F663); assay: Ki, nitrocefin cleavage by purified enzyme, KPC-2; format: biochemical; settings: nitrocefin reporter substrate; read-out: Ki (KPC-2, NCF)
Sequence of KPC-2 (Q9F663 25-293, looked up, species assumed): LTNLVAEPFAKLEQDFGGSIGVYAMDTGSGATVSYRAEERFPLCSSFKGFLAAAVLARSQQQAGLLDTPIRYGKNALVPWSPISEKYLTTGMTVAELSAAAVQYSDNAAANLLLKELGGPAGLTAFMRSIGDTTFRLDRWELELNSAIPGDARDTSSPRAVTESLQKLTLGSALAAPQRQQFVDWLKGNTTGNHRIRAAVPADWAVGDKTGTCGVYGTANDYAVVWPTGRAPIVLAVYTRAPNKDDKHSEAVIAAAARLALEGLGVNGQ
Outline: as §1

KP1009 (CTX-M-15) [11] = assay: Tigemonam potentiation (MPC@4), KP1009; format: cell-based; settings: BLI with tigemonam at 4 μg/mL
KP1010 (SHV-12) = assay: Tigemonam potentiation (MPC@4), KP1010; format: cell-based
KP1005 (CTX-M-14) [12] = assay: Aztreonam potentiation (MPC@4), KP1005; format: cell-based; settings: BLI with aztreonam at 4 μg/mL
KP1086 (OXA-48) = assay: Biapenem potentiation (MPC@1), KP1086; settings: BLI with biapenem at 1 μg/mL
[13] = Monomer content of pH adjusted aqueous solutions (LC-UV); format: physicochemical; settings: 1 mg/mL aqueous salt solution, pH adjusted to 7.6 to 8, LC-UV
Procedure: Boronic acid containing compounds are known to undergo oligomerization. The presence of oligomers can greatly complicate drug development, as they represent new chemical species whose content must be controlled and qualified by testing in toxoicology studies. The monomer content of compounds was evaluated by adjusting aqueous solutions to physiological pH at various concentrations. The monomer content of pH adjusted solutions was measured using LC-UV. Test compounds were weighed out into a 1.5 mL Eppendorf tube. A solution of water was prepared in 1.00 mg/mL, 10.0 mg/mL or 100 mg/mL concentrations of the compound based on active fraction. A volume 20 uL was subtracted to allow room for addition of acid or base to adjust pH. The solution pH was measured. The pH was then adjusted through addition of acid or base as necessary until the reading was in the 7.6 to 8 range. A final pH measurement was made after ensuring all the compound was in solution. The solution was injected onto LC-UV in 0.1 uL to 5 uL volume within less than half an hour after the time the sample was prepared. Elution was done using 0.1% TFA in water for mobile phase A and 0.085% TFA in methanol for mobile phase B on an Excel ACE 5 Super C18 2.1×100 mm column at 0.6 ml/min flow rate with 9 min gradient, 3.9 minute hold at 90% B and 18 minute run time. The absorption was measured at 220, 254 and 300 nm with a 4 nm bandwidth.

Sequence of OXA-48 (Q6XEC0 23-265, looked up, species assumed): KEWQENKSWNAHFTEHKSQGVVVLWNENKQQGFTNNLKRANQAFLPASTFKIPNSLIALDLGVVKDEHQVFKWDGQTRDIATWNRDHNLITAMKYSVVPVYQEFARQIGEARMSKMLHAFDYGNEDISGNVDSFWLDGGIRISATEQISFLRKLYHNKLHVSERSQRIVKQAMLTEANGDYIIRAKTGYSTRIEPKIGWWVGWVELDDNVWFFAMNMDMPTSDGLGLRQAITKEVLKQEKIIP

SMILES	Ki (OXA-48)	AZT MPC4 ECL1002 (ECL1002 [1])	TIG MPC4 SHV-5 ec308 (ec308 (SHV-5))	TIG MPC4 CTX-M-14 KP1005 (KP1005 (CTX-M-14) [2])	AZT MPC4 TEM-10 ec302 (ec302 (TEM-10) [3])	TIG MPC4 ECL1002 (ECL1002 [4])	Ki (CTX-M-14)	Ki (P99)	BPM MPC1 KP1004 KPC-2 (KP1004 (KPC-2) [5])	TIG MPC4 CMY-6 EC1010 (EC1010 (CMY-6) [6])	AZT MPC4 CTX-M-15 KP1009 (KP1009 (CTX-M-15) [7])	Ki (SHV-12)	Ki (Pa AmpC)	AZT MPC4 KPC-2 KP1004 (KP1004 (KPC-2) [8])	AZT MPC4 CMY-6 EC1010 (EC1010 (CMY-6) [9])	TIG MPC4 TEM-10 ec302 (ec302 (TEM-10) [10])	Ki (KPC-2)	TIG MPC4 CTX-M-15 KP1009 (KP1009 (CTX-M-15) [11])	TIG MPC4 SHV-12 KP1010 (KP1010 (SHV-12))	AZT MPC4 CTX-M-14 KP1005 (KP1005 (CTX-M-14) [12])	further results
CSCC(=O)N[C@H]1Cc2ccc(Sc3nncn3C)c(C(=O)O)c2OB1O [Compound 35, (R)-2-hydroxy-7-(4-methyl-4H-1,2,4-triazol-3-ylthio)-3-(2-(methylthio)acetamido)-3,4-dihydro-2H-benzo[e][1,2]oxaborinine-8-carboxylic acid]	< 1 nM	Y (MIC of 1 μg/mL to 10 μg/mL)	X (key: X: MIC of less than 1 μg/mL; Y: MIC of 1 μg/mL to 10 μg/mL; Z: MIC of greater than 10 μg/mL)	Y (MIC of 1 μg/mL to 10 μg/mL)	Y (MIC of 1 μg/mL to 10 μg/mL)	Y (MIC of 1 μg/mL to 10 μg/mL)	< 1 nM	> 10 nM	X (MIC of less than 1 μg/mL)	Y (MIC of 1 μg/mL to 10 μg/mL)	Y (key: X: MIC of less than 1 ng/mL; Y: MIC of 1 μg/mL to 10 μg/mL; Z: MIC of greater than 10 μg/mL)	< 1 nM	> 10 nM	Y (MIC of 1 μg/mL to 10 μg/mL)	Y (key: X: MIC of less than 1 ng/mL; Y: MIC of 1 μg/mL to 10 μg/mL; Z: MIC of greater than 10 μg/mL)	Y (key: X: MIC of less than 1 ng/mL; Y: MIC of 1 μg/mL to 10 μg/mL; Z: MIC of greater than 10 μg/mL)	> 10 nM	Y (MIC of 1 μg/mL to 10 μg/mL)	X (key: X: MIC of less than 1 μg/mL; Y: MIC of 1 μg/mL to 10 μg/mL; Z: MIC of greater than 10 μg/mL)	Y (MIC of 1 μg/mL to 10 μg/mL)	BPM MPC1 OXA-48 KP1086 (KP1086 (OXA-48)): Z (MIC of greater than 10 μg/mL)
CSCC(=O)N[C@H]1Cc2ccc(Sc3nnc(N)s3)c(C(=O)O)c2OB1O [Compound 21, (R)-7-(5-amino-1,3,4-thiadiazol-2-ylthio)-2-hydroxy-3-(2-(methylthio)acetamido)-3,4-dihydro-2H-benzo[e][1,2]oxaborinine-8-carboxylic acid]	< 1 nM	Y (MIC of 1 μg/mL to 10 μg/mL)	X (key: X: MIC of less than 1 μg/mL; Y: MIC of 1 μg/mL to 10 μg/mL; Z: MIC of greater than 10 μg/mL)	Y (MIC of 1 μg/mL to 10 μg/mL)	Y (MIC of 1 μg/mL to 10 μg/mL)	Y (MIC of 1 μg/mL to 10 μg/mL)	< 1 nM	> 10 nM	Y (MIC of 1 μg/mL to 10 μg/mL)	Y (MIC of 1 μg/mL to 10 μg/mL)	Y (key: X: MIC of less than 1 ng/mL; Y: MIC of 1 μg/mL to 10 μg/mL; Z: MIC of greater than 10 μg/mL)	< 1 nM	> 10 nM	Y (MIC of 1 μg/mL to 10 μg/mL)	Y (key: X: MIC of less than 1 ng/mL; Y: MIC of 1 μg/mL to 10 μg/mL; Z: MIC of greater than 10 μg/mL)	Y (key: X: MIC of less than 1 ng/mL; Y: MIC of 1 μg/mL to 10 μg/mL; Z: MIC of greater than 10 μg/mL)	> 10 nM	Y (MIC of 1 μg/mL to 10 μg/mL)	X (key: X: MIC of less than 1 μg/mL; Y: MIC of 1 μg/mL to 10 μg/mL; Z: MIC of greater than 10 μg/mL)	Y (MIC of 1 μg/mL to 10 μg/mL)	BPM MPC1 OXA-48 KP1086 (KP1086 (OXA-48)): Z (MIC of greater than 10 μg/mL); % Monomer in 1 mg/mL salt solution [13]: 98.1%
Nc1nnc(C(=O)N[C@H]2Cc3ccc(F)c(C(=O)O)c3OB2O)s1 [Compound 8, (R)-3-(5-amino-1,3,4-thiadiazole-2-carboxamido)-7-fluoro-2-hydroxy-3,4-dihydro-2H-benzo[e][1,2]oxaborinine-8-carboxylic acid]	< 1 nM	Y (MIC of 1 μg/mL to 10 μg/mL)	X (key: X: MIC of less than 1 μg/mL; Y: MIC of 1 μg/mL to 10 μg/mL; Z: MIC of greater than 10 μg/mL)	Y (MIC of 1 μg/mL to 10 μg/mL)	Y (MIC of 1 μg/mL to 10 μg/mL)	Y (MIC of 1 μg/mL to 10 μg/mL)	< 1 nM	> 10 nM	X (MIC of less than 1 μg/mL)	X (MIC of less than 1 μg/mL)	Y (key: X: MIC of less than 1 ng/mL; Y: MIC of 1 μg/mL to 10 μg/mL; Z: MIC of greater than 10 μg/mL)	< 1 nM	> 10 nM	Y (MIC of 1 μg/mL to 10 μg/mL)	Y (key: X: MIC of less than 1 ng/mL; Y: MIC of 1 μg/mL to 10 μg/mL; Z: MIC of greater than 10 μg/mL)	Y (key: X: MIC of less than 1 ng/mL; Y: MIC of 1 μg/mL to 10 μg/mL; Z: MIC of greater than 10 μg/mL)	> 10 nM	Y (MIC of 1 μg/mL to 10 μg/mL)	X (key: X: MIC of less than 1 μg/mL; Y: MIC of 1 μg/mL to 10 μg/mL; Z: MIC of greater than 10 μg/mL)	Y (MIC of 1 μg/mL to 10 μg/mL)	BPM MPC1 OXA-48 KP1086 (KP1086 (OXA-48)): Y (MIC of 1 μg/mL to 10 μg/mL)
CSCC(=O)N[C@H]1Cc2ccc(SCC3CCNCC3)c(C(=O)O)c2OB1O [Compound 24, (R)-2-hydroxy-3-(2-(methylthio)acetamido)-7-(piperidin-4-ylmethylthio)-3,4-dihydro-2H-benzo[e][1,2]oxaborinine-8-carboxylic acid]	< 1 nM	Y (MIC of 1 μg/mL to 10 μg/mL)	Y (key: X: MIC of less than 1 ng/mL; Y: MIC of 1 μg/mL to 10 μg/mL; Z: MIC of greater than 10 μg/mL)	Y (MIC of 1 μg/mL to 10 μg/mL)	Y (MIC of 1 μg/mL to 10 μg/mL)	Y (MIC of 1 μg/mL to 10 μg/mL)	< 1 nM	> 10 nM	X (MIC of less than 1 μg/mL)	Y (MIC of 1 μg/mL to 10 μg/mL)	Y (key: X: MIC of less than 1 ng/mL; Y: MIC of 1 μg/mL to 10 μg/mL; Z: MIC of greater than 10 μg/mL)	1 to 10 nM	> 10 nM	Y (MIC of 1 μg/mL to 10 μg/mL)	Y (key: X: MIC of less than 1 ng/mL; Y: MIC of 1 μg/mL to 10 μg/mL; Z: MIC of greater than 10 μg/mL)	Z (key: X: MIC of less than 1 ng/mL; Y: MIC of 1 μg/mL to 10 μg/mL; Z: MIC of greater than 10 μg/mL)	> 10 nM	Y (MIC of 1 μg/mL to 10 μg/mL)	X (key: X: MIC of less than 1 μg/mL; Y: MIC of 1 μg/mL to 10 μg/mL; Z: MIC of greater than 10 μg/mL)	Y (MIC of 1 μg/mL to 10 μg/mL)	BPM MPC1 OXA-48 KP1086 (KP1086 (OXA-48)): Z (MIC of greater than 10 μg/mL); % Monomer in 1 mg/mL salt solution [13]: 98.3%
